The record followed here is US9365534B2, “Arylated camphenes, processes for their preparation and uses thereof” (Yissum Research Development Company of the Hebrew …, priority 2009, dated 2016).

Assay [1] has as its target T1, human CB2 receptor (Homo sapiens (Human), UniProt P34972). Put plainly: cell-based. Conditions: for Emax: CHO, read-out: cAMP Assay CB2 Receptor Emax; for IC50: read-out: cAMP Assay CB2 Receptor IC50. The source says: (§1) The cDNA clones for human HA-tagged CB1 and CB2 receptors were obtained from the Missouri S&T cDNA Resource Center (www.cdna.org) in cloning vector pcDNA3.1+. The vector containing the human CB2 receptor was transfected directly into CHO-KI cells obtained from ATCC. The HA-tagged human CB1 receptor sequence was subcloned into the pef4-V5-HisA vector with Kpn1 and Pme1 restriction enzymes and subsequently transfected into CHO-K1 cells. Cells were clonally isolated by limited dilution and screened by immunocytochemistry for expression of the HA tag.
(§2) Cells were maintained in DMEM/F12 media supplemented with 10% fetal bovine serum (FBS), 100 units/ml penicillin and 100 μg/ml streptomycin and 2 mM L-glutamine. Transfected cell lines were maintained with additional 150 ug/ml zeocin for pEF HA-CB1 transfected cells and 500 ug/ml G-418 for pcDNA HA-CB2 transfected cells (all reagents obtained from Invitrogen).
(§3) Cells were seeded at a density of 10,000 cells per well in poly-L-lysine treated 96-well culture plates (BD Biosciences). The following day wells were incubated with 40 μl DMEM/F12 containing 0.5% (w/v) BSA and 0.5 mM 3-isobutyl-1-methylxanthine (Sigma-Aldrich) for 30 minutes prior to 15 min stimulation with 50 μM forskolin (Tocris Cookson) and varying concentrations of indicated compounds at 37° C., 5% CO2. Assays were stopped by removal of media and addition of 100% ice cold ethanol. Plates were then frozen for a minimum of two hours before complete evaporation of ethanol. The well contents were then reconstituted in 50 μl cAMP assay buffer (20 mM HEPES pH 7.5 and 5 mM EDTA). Half of the reconstituted sample was transferred to round bottom 96-well plates (Greiner Bio-One GmbH) with 50 μl 0.01% w/v PKA (cAMP dependent protein kinase (Sigma-Aldrich) in 1 mM Na citrate pH 6.5 with 2 mM dithiothreitol) and 25 μl [^3H]-cAMP (at 22 nM in cAMP assay buffer) (GE Healthcare, Life Sciences). This was allowed to equilibrate for 3-18 hours. Following this a charcoal slurry (5% (w/v) activated charcoal and 0.2% (w/v) BSA in cAMP assay buffer) was added to the samples and the plates centrifuged at 3000×g, 4° C. for 5 min. Radioactive counts within the supernatant were then determined as described for competition binding assays.
(§4) pIC50 values were determined from cAMP assays by fitting a sigmoidal concentration response curve using Prism 4.02.

A further assay addresses human CB1 receptor (Homo sapiens (Human), UniProt P21554). Put plainly: cell-based. Conditions: whole cells expressing CB1, 50 μM forskolin; read-out: cAMP Assay CB1 Receptor IC50.
From the text: as §1, §2, §3, §4

Assay [2] concerns the target T1, human CB2 receptor. The assay can be described thus: Membrane competition binding assay with [3H]-CP 55,940, CHO-CB2 membranes.
From the text: as §1, §2
Cells were grown to confluence and harvested in ice cold phosphate buffered saline with 5 mM EDTA. Cells were spun at 200×g for 10 min and frozen at −80° C. until required. Cell pellets were thawed with cold 0.32 M sucrose and homogenised with a glass homogeniser. The homogenate was spun at 1000×g for 10 min at 4° C. and the supernatant spun in a Sorvall ultracentrifuge for 30 min at 100,000×g. The pellet was then washed in ice cold water and re-spun twice more. The final pellet was resuspended in 50 mM Tris pH 7.5, 0.5 mM EDTA. Protein concentration was determined using the Dc protein assay kit (BioRad, Hercules, Calif., USA).
Membranes (5-10 μg) were incubated with radioligand and a range of concentrations of test compounds in binding buffer (50 mM Tris pH 7.4, 5 mM MgCl2, 1 mM EDTA) with 0.5% (w/v) bovine serum albumin (BSA) (ICP Bio, New Zealand), at 30° C. for 60 min. Stock solutions of putative cannabinoid ligands were prepared in dimethyl sulfoxide to a concentration of 10 mM. Six different final concentrations of compounds were used ranging from 50 μM to 0.1 nM. […] Assays were terminated by addition of 2 ml ice cold binding buffer and filtration through GF/C filters (Whatman) pre-soaked in cold binding buffer, followed by two washes in the same buffer.
Radioactivity was determined by incubation of filters with Irgasafe scintillation fluid (PerkinElmer) and scintillation counting in a Wallac Trilux using Microbeta Trilux software. Data was analysed using the Prism 4.02 programme (GraphPad Software, San Deigo, Calif., USA).
All data was analyzed using Prism 4.02. For binding data the Ki was determined from IC50 values derived from competition binding data fitted with one site competition non-linear regression analysis by Prism 4.02 using the Kd values reported above.

Chain of human CB1 receptor (P21554 whole entry): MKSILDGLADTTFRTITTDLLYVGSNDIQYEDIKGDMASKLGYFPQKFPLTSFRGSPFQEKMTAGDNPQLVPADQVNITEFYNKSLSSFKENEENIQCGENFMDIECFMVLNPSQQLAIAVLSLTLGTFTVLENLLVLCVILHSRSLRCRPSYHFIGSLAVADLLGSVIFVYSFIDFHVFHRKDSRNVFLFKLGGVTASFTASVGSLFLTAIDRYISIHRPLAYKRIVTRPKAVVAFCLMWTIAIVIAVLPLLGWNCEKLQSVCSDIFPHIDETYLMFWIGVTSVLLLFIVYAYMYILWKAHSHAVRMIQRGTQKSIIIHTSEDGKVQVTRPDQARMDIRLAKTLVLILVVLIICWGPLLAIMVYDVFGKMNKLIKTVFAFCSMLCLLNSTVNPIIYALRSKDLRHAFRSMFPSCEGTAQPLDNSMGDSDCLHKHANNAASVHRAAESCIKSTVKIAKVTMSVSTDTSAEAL

`CCCCCCC(C)(C)c1cc(OC)c(C2=C[C@H]3CC[C@]2(CO)C3(C)C)c(OC)c1` [HU-910, (1S,4R)-(2-(2,6-dimethoxy-4-(2-methyloctan-2-yl)phenyl)-7,7-dimethylbicyclo[2.2.1]hept-2-en-1-yl)methanol]: on human CB2 receptor [1], the Emax (commonly the maximal effect, on the per cent scale that the assay sets) amounted to 105 ± 12% and the IC50 – broadly, the concentration needed to halve the response being measured – was determined as 162 nM. Moreover, the IC50 on human CB1 receptor was over 50000 nM. Also, the Ki (as a rule, a measure of affinity in units of concentration, obtained from inhibition or displacement) on human CB2 receptor [2] was 6 nM.
As to `CCCCCCC(C)(C)c1cc(OC)c(C2=C[C@H]3CC[C@]2(C(=O)O)C3(C)C)c(OC)c1` [HU-914, (1S,4R)-2-(2,6-dimethoxy-4-(2-methyloctan-2-yl)phenyl)-7,7-dimethylbicyclo[2.2.1]hept-2-ene-1-carboxylic acid], at human CB2 receptor [1], the maximal response (Emax) is 82 ± 7% and the IC50 is 2290 nM. The IC50 at human CB1 receptor was over 50000 nM. The affinity at human CB2 receptor [2], expressed as Ki, was 1500 nM.
